≈ marks a conversion by molar mass, not a printed value. Where two headings read alike, the source gives them in different places.
Columns and labels:
[1] = tested on: AMPK; experiment: Western blot, AMPK activation in HUVEC; format: cell-based, human; settings: 24 h, dose-dependent
Protocol: (§1) Western blot. […] Then cells were lysed using RIPA buffer and the protein concentration were measured and normalized. After electrophoresis and transfer onto 0.45 um nitrocellulose membranes, the membranes were bolted with 5% BSA for 1 h and then incubated overnight at 4° C. Secondary antibody was applied to each membrane for 1 hour. Bolts were imaged using Syngene PXi imaging system after adding chemiluminescent substrate. The following antibodies were used for the assay: AMPKα (1:1,000, cell signaling, #2532s), phosphor-AMPKα (1:1,000, cell signaling #2535s), ACC (1:1,000, cell signaling #3662s), phosphor-ACC (1:1,000, cell signaling, #3661s), mTOR (1:1,000, cell signaling, #2972S), phosphor-mTOR (1:1,000, cell signaling, #9234s), p70 S6 Kinase (1:1,000, senta cruz, #sc-8418), phosphor-p70 S6 Kinase (1:1,000, cell signaling, #3662s), anti-Rabbit IgG (1:10000, GE lifesciences, #NA934V).

[2] = tested on: HUVEC; experiment: HUVEC tube formation assay on Matrigel; format: cell-based; settings: Homo sapiens, 24 h, read-out: inhibition of HUVEC tube formation (total tube length)
[3] = tested on: mTOR; experiment: Western blot, mTOR inhibition in HUVEC; format: cell-based, human; settings: for mTOR inhibition (phosphorylation of mTOR / p70 S6K): 24 h
Protocol: as §1

[4] = tested on: HUVECs; experiment: Filipin staining of intracellular cholesterol (NPC phenotype); format: cell-based, human; settings: HUVEC, 0.2 μM, 24 h
Description: Nieman-Pick C phenotype and mTOR inhibition. […] We thus determined whether compound 48 shared the same mechanism with itraconazole. The intracellular cholesterol was detected using the cholesterol-binding fluorescent dye filipin. […] It is known that AMPK activation leads to mTOR inhibition.
Inhibition of NPC1. NPC1 plays an essential role in cholesterol export from the endolysosome. […] At a close view (FIG. 9B), the linear pyridinyl-piperizin-1-yl-phenyl core of compound 14 nestled into the hydrophobic channel created by the transmembrane helix. The isobutyl tail faced toward the open entrance of this channel. The tetrazole moiety pointed into the closed end of the pocket and interacted with the hydroxyl group of Tyr1225 via hydrogen bonding.
Filipin staining. 2000 HUVECs were plated in chamber slide with 1 ml media and allowed to settle overnight. […] The the cells were fixed with 4% paraformaldehyde for 15 min. After washed, cells were incubated with 500 ul 50 ug/ml filipin solution for 1 hour in the dark. Then the cells were washed twice with PBS, mounted and covered with coverslip. The images were taken using confocal microscope under 360/460 nm.

[5] = tested on: HUVEC; experiment: HUVEC proliferation, [3H]-thymidine incorporation assay; format: cell-based, human
Summary of the method: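 Proliferation read as [3H]-thymidine uptake (1 μCi, 6 h pulse) after 24 h drug treatment in triplicate. Cells: HUVEC at passage ≤8 grown in EGM-2, plated 2000/well the night before; IC50 fitted from scintillation counts.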

[6] = tested on: HUVEC; experiment: as above; format: cell-based; settings: Homo sapiens, mean ± SD, three independent experiments, read-out: HUVEC inhibition IC50
[7] = tested on: VEGFR2; experiment: Western blot, VEGFR2 glycosylation in HUVEC; format: cell-based, human; settings: 24 h
Protocol: mTOR and VEGFR2 inhibition. We then determined the effects of compound 14 on AMPK/mTOR activity and VEGFR2 glycosylation. […] We observed two VEGFR2 bands by Western blotting, representing differentially glycosylated forms of the receptor, with the higher molecular weight band being more predominant in untreated HUVEC. […] The high molecular weight species of VEGFR2 disappeared upon treatment with compound 14 at concentrations of 0.5 μM or higher (FIG. 10A). We next determined whether compound 14 and other analogs affected cellular localization of VEGFR2 using immunofluorescence (FIG. 10B). […] In contrast, in the untreated cells VEGFR2 was uniformly distributed in small puncta throughout the cytoplasm. As a critical component of lipid rafts, cholesterol is pivotal to intracellular transportation and cell signaling.
Western blot. […] Then cells were lysed using RIPA buffer and the protein concentration were measured and normalized. After electrophoresis and transfer onto 0.45 um nitrocellulose membranes, the membranes were bolted with 5% BSA for 1 h and then incubated overnight at 4° C. Secondary antibody was applied to each membrane for 1 hour. Bolts were imaged using Syngene PXi imaging system after adding chemiluminescent substrate. […]

[8] = target: T1, CYP3A4 (Homo sapiens, UniProt P08684); experiment: CYP3A4 enzyme assay (Vivid CYP3A4 Green Screening Kit); format: in vitro ADME
T1 construct: purchased ThermoFisher P2857; host or cells: baculosomes (insect-cell microsomes, own knowledge)
Summary of the method: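 Cell-free fluorescence assay with CYP3A4 baculosomes preincubated with drug 10 min at 37° C before Vivid substrate addition. Fluorescence (ex/em 485/520) read every 1 min for 60 minutes. Compounds tested at 1 μM final concentration.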

[9] = tested on: VEGFR2; experiment: Immunofluorescence assay, VEGFR2 cellular localization; format: cell-based, human; settings: HUVEC, 2 μM, 24 h, colocalized with GM130
Protocol: Immunofluorescence assay. HUVECs (5000) were seeded in 4-well chamber slide (Nunc™ Lab-Tek™ II) with 1 mL media and cultured overnight. Cells were treated with […] drugs or DMSO for 24 h. The media was then aspirated and washed 3 times with PBS. Cells were fixed with 4% paraformaldehyde for 15 min, washed three times with PBS, permeabilized with 0.1% Triton X and washed again. 2% BSA blocking buffer was applied to the cells for 1 h. The primary antibodies of VEGFR2 (1:50, cell signaling, #2479) and GM130 (1:1000, BD, #610823) were incubated overnight at 4° C. After washing 3 times with 0.5% BSA in PBS, secondary antibody solutions (1:1000 goat anti-rabbit Alexa Fluor 488, Invitrogen, #A11008 and 1:1000 goat anti-mouse Alexa Fluor 594, Invitrogen, A11005) were applied at room temperature for 1 h in the dark. After washing 3 times, slides were incubated in 0.1 μg/mL DAPI solution for 5 min and rinsed 2 times with PBS. The coverslip was mounted with Immunount (Fisher) and sealed with nail polish. Confocal images were taken using Zeiss LSM700 confocal microscope with 20× lenses.

[10] = Aqueous solubility test in 0.001N HCl; format: physicochemical; settings: for solubility at 24 h: 0.001 N HCl aqueous buffer, simulated gastric fluid, kinetic from dmso stock, thermodynamic solubility, HPLC, pH=3, room temperature
Protocol: The inhibitory effects of the new analogs on HUVEC proliferation were measured using a [3H]-thymidine incorporation assay. The log P values, used as an indicator of lipophilicity, were calculated using ALOGPS2.1 software. Aqueous solubility is a key physiochemical property relevant for oral absorption. We determined the solubility of each analog in 0.001 N HCl (pH=3), which represents the acidic human gastric fluid.
Aqueous solubility test. In a 1.5 mL microcentrifuge tube, 2 ul of 10 mM compound stock solution in DMSO was added to 1 mL 0.001N HCl aqueous buffer to obtain saturated solution. The resulting mixture was shaken under 600 rpm for 24 h at room temperature. Then the tube was centrifuged at 13,000 rpm for 5 min to remove the undissolved compound. 100 ul of the supernatant was injected to an Agilent 6120 LC/MS for analysis. The mass spectrometry data was collected under SIM/Scan mode. The ions of compound Exact Mass+1 and Exact Mass+23 were monitored as selected ion monitoring (SIM) for peak area integration. Solubility was calculated according to the concentration standard curve of each compound.

[11] = Earlier SAR studies, anti-angiogenic activity
[12] = Earlier SAR studies, hepatotoxicity
[13] = background statement; cited from earlier work

T1 sequence (P08684 whole entry): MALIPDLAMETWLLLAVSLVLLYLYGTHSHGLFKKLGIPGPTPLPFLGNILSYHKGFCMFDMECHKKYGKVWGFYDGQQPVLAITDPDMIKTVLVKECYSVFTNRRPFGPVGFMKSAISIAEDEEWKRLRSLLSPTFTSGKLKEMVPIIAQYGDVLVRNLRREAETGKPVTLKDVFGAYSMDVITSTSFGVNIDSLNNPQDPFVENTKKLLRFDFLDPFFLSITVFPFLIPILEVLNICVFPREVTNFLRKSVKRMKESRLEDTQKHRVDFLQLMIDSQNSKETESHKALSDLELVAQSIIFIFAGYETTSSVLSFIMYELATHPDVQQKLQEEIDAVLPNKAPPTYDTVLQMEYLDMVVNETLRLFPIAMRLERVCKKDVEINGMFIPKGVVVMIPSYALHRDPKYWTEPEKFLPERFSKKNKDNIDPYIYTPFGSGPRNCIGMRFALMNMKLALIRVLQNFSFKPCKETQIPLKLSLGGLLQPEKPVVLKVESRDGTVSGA

CCC(C)n1ncn(-c2ccc(N3CCN(c4ccc(OC[C@@H]5CO[C@@](Cn6cnnn6)(c6ccc(Cl)cc6Cl)O5)cn4)CC3)cc2)c1=O (stereo partly drawn) [Compound 14, 4-(4-(4-(5-(((2S,4R)-2-((1H-tetrazol-1-yl)methyl)-2-(2,4-dichlorophenyl)-1,3-dioxolan-4-yl)methoxy)pyridin-2-yl)piperazin-1-yl)phenyl)-2-(sec-butyl)-2,4-dihydro-3H-1,2,4-triazol-3-one]
AMPK activation (phosphorylation of AMPK Thr172 / substrate ACC) [1]: activated AMPK
inhibition at 3 µM [2]: 70%
S6K phosphorylation at higher doses ([3]; 1 μM and 2 μM): completely abolished
mTOR inhibition (phosphorylation of mTOR / p70 S6K) [3]: potently inhibited
induction of NPC phenotype (cholesterol accumulation) [4]: massive build-up of cholesterol
IC50 ([5]; [3H]-thymidine incorporation, mean ± SD, three independent experiments, read-out: HUVEC inhibition IC50): 77.1 ± 11.9 nM
IC50 [6]: 77 nM
VEGFR2 glycosylation, band mobility [7]: mobility shift to the lower molecular weight, hypoglycosylated band
concentration at which the high molecular weight species of VEGFR2 disappeared [7]: ≥ 0.5 µM
IC50 ([8]; dose-response, FIG. 2 / FIG. 6, read-out: IC50 for CYP3A4 inhibition): 95 µM
VEGFR2 cellular localization [9]: accumulated in the perinuclear region
increase in solubility compared to itraconazole ([10]; 0.001N HCl): over 90 fold
solubility at 24 h [10]: 0.951 µg/mL (≈ 1.34 µM)

CCC(C)n1ncn(-c2ccc(N3CCN(c4ccc(OC[C@@H]5CO[C@@](Cn6cnnn6)(c6ccc(Cl)cc6Cl)O5)cc4)CC3)cc2)c1=O (stereo partly shown) [Compound 24]
anti-angiogenic activity, in words [11]: increased activity
induction of NPC phenotype (cholesterol accumulation) ([4]; listed as compound 24): massive build-up of cholesterol
CYP3A4 inhibition, in words ([8]; dose response or compared with itraconazole): significantly reduced CYP3A4 inhibition
solubility at 24 h [10]: 0.321 µg/mL (≈ 0.455 µM)

CCC(C)n1ncn(-c2ccc(N3CCN(c4ccc(OC[C@@H]5CO[C@@](Cn6cnnn6)(c6ccc(Cl)cc6Cl)O5)cc4)CC3)cc2)c1=O (stereo partly drawn) [Compound 48, 4-(4-(4-(4-(((2S,4R)-2-((1H-tetrazol-1-yl)methyl)-2-(2,4-dichlorophenyl)-1,3-dioxolan-4-yl)methoxy)phenyl)piperazin-1-yl)phenyl)-1-sec-butyl-1H-1,2,4-triazol-5(4H)-one]
AMPK activation (phosphorylation of AMPK Thr172 / substrate ACC) [1]: increased the phosphorylation of AMPK
mTOR inhibition (phosphorylation of mTOR / p70 S6K) [3]: decrease in the phosphorylation of mTOR
induction of NPC phenotype (cholesterol accumulation) ([4]; listed as compound 48): induced NPC phenotype
Proliferation (IC50/IC50 Itra) ([5]; HUVEC IC50 relative to itraconazole): 0.4
CYP3A4 Inhibition (compared to intracozanole at 1 um) ([8]; % enzyme inhibition at 1 uM drug / % enzyme inhibition at 1 uM itraconazole): 0.02
IC50 at 60 min ([8]; human, recombinant CYP3A4 baculosomes (cell-free), probe Vivid substrate (Vivid CYP3A4 Green Screening Kit), dose-response, FIG. 2 / FIG. 6, read-out: IC50 for CYP3A4 inhibition): > 20 µM
EC50 at 60 min ([8]; human, recombinant CYP3A4 baculosomes, probe Vivid substrate (Vivid CYP3A4 Green Screening Kit), read-out: EC50 against CYP3A4): > 20 µM

CCC(C)n1ncn(-c2ccc(N3CCN(c4ccc(OC[C@@H]5CO[C@@](Cn6cncn6)(c6ccc(Cl)cc6Cl)O5)cc4)CC3)cc2)c1=O (stereo partly shown) [IT-C]
hepatotoxicity, in words [12]: significantly reduced hepatotoxicity
anti-angiogenic activity, in words [11]: strongest anti-angiogenic activity

CCC(C)n1ncn(-c2ccc(N3CCN(c4ccc(OCC5COC(Cn6cncn6)(c6ccc(Cl)cc6Cl)O5)cc4)CC3)cc2)c1=O (stereo not shown) [itraconazole, reference compound]
log P [13]: 5.3
solubility at 24 h [10]: 0.0101 µg/mL (≈ 0.0143 µM)

Source: US12071430B2 (The Johns Hopkins University, priority 2011, dated 2024)
